Reference: patent US9403830B2, “Inhibitors of leukotriene production” (Boehringer Ingelheim International GmbH, priority 2012, dated 2016)

Columns and labels:
[1] = test system: LTB4 synthesis in human whole blood; assay: human whole blood (HWB) assay, inhibition of LTB4 production; assay type: cell-based; conditions: heparinized human whole blood, calcimycin 20 μM stimulation, plasma LTB4
How it was run: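 Plasma LTB4, quantified by HTRF immunoassay, is the read-out after calcimycin challenge (20 μM final, 30 min, 37 °C) of heparinized whole blood that had been pretreated with compound for 15 min at 37 °C; values given as IC50.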

human LTA4 hydrolase = molecular target: T1, human LTA4 hydrolase (Homo sapiens, UniProt P09960); assay: LTA4H Enzyme assay (peptidase, Arg-AMC cleavage); assay type: biochemical; conditions: LTA4H enzyme 1 nM, Arg-AMC substrate 50 μM, room temperature 1 h, fluorescence 380/460 nm
T1 sequence (P09960 1-611): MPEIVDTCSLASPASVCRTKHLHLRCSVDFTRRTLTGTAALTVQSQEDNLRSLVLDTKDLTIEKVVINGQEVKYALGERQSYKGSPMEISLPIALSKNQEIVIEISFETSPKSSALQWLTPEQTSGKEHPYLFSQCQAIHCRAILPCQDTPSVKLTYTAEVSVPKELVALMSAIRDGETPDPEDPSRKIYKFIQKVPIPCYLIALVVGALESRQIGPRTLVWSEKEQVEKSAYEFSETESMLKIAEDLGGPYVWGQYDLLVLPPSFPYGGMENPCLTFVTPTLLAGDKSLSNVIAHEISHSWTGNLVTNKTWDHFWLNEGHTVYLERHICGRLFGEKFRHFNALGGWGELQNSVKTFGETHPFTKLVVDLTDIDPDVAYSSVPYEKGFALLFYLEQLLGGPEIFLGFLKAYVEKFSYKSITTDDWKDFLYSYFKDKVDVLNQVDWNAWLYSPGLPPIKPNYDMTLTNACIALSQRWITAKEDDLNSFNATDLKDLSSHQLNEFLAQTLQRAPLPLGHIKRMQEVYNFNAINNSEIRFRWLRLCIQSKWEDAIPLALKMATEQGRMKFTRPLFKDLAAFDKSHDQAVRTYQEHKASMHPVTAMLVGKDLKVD
How it was run: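 Human LTA4H (1 nM final) incubated with compound and Arg-AMC (50 μM final) in 50 mM Tris-HCl pH 7.5, 100 mM KCl, 0.5% BSA, 1 h at room temperature. Product read as AMC fluorescence (ex 380/em 460 nm); IC50 reported.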

SMILES | IC50 [1] [nM] | IC50 (human LTA4 hydrolase) [nM]
c1cc(-c2ccc(Oc3ccc4nc(OCCN5CCOCC5)ccc4c3)nc2)[nH]n1 [Example 120, 2-(2-morpholin-4-yl-ethoxy)-6-[5-(2H-pyrazol-3-yl)-pyridin-2-yloxy]-quinoline] | 3100 | 25
CC(=O)NCCNCc1ccc2cc(Oc3ccc(-c4ccn[nH]4)cn3)ccc2n1 [Example 121, N-[2-({6-[5-(2H-Pyrazol-3-yl)-pyridin-2-yloxy]-quinolin-2-ylmethyl}-amino)-ethyl]-acetamide] | 390 | 1.5
COCCN(C)Cc1ccc2cc(Oc3ccc(-c4ccn[nH]4)cn3)ccc2n1 [Example 122, (2-Methoxy-ethyl)-methyl-{6-[5-(2H-pyrazol-3-yl)-pyridin-2-yloxy]-quinolin-2-ylmethyl}-amine] | 200 | 0.97
CN(C)Cc1ccc2cc(Oc3ccc(-c4ccn[nH]4)cc3)ccc2n1 [Example 123, Dimethyl-{6-[4-(2H-pyrazol-3-yl)-phenoxy]-quinolin-2-ylmethyl}-amine] | 240 | 0.44
O=C(O)c1ccc(C2CCN(Cc3ccc4c(ccn4Cc4ccc(-c5ccn[nH]5)cc4)c3)CC2)cc1 [Example 124, 4-(1-{1-[4-(2H-pyrazol-3-yl)-benzyl]-1H-indol-5-ylmethyl}-piperidin-4-yl)-benzoic acid] | 130 | 0.061
CC(=O)NC1CCN(CC2Cc3ccc(Oc4ccc(-c5ccn[nH]5)cn4)cc3O2)CC1 (centres unmarked) [Example 125, N-(1-{6-[5-(2H-Pyrazol-3-yl)-pyridin-2-yloxy]-2,3-dihydro-benzofuran-2-ylmethyl}-piperidin-4-yl)-acetamide] | 100 | 0.29
c1cc(-c2ccc(Oc3ccc4c(c3)OC(CN3CCCC3)C4)nc2)[nH]n1 (centres unmarked) [Example 126, 5-(2H-Pyrazol-3-yl)-2-(2-pyrrolidin-1-ylmethyl-2,3-dihydro-benzofuran-6-yloxy)-pyridine] | 110 | 0.51
c1cc(-c2ccc(Oc3ccc4cc(CN5CCCC5)oc4c3)nc2)[nH]n1 [Example 127, 5-(2H-Pyrazol-3-yl)-2-(2-pyrrolidin-1-ylmethyl-benzofuran-6-yloxy)-pyridine] | 130 | 0.68
CC(=O)NCC1CCN(CC2Cc3ccc(Oc4ccc(-c5ccn[nH]5)cn4)cc3O2)CC1 (centres unmarked) [Example 128, N-(1-{6-[5-(2H-Pyrazol-3-yl)-pyridin-2-yloxy]-2,3-dihydro-benzofuran-2-ylmethyl}-piperidin-4-ylmethyl)-acetamide] | 170 | 0.74
O=C1CCCN1C1CCN(CC2Cc3ccc(Oc4ccc(-c5ccn[nH]5)cn4)cc3O2)CC1 (centres unmarked) [Example 129, 1-(1-{6-[5-(2H-Pyrazol-3-yl)-pyridin-2-yloxy]-2,3-dihydro-benzofuran-2-ylmethyl}-piperidin-4-yl)-pyrrolidin-2-one] | 190 | 0.92
O=C1OCCN1C1CCN(CCc2coc3cc(Oc4ccc(-c5ccn[nH]5)cn4)ccc23)CC1 [Example 130, 3-[1-(2-{6-[5-(2H-Pyrazol-3-yl)-pyridin-2-yloxy]-benzofuran-3-yl}-ethyl)-piperidin-4-yl]-oxazolidin-2-one] | 99 | 0.26
CC(=O)N[C@H]1C[C@H]2CC[C@@H](C1)N2CC1Cc2ccc(Oc3ccc(-c4ccn[nH]4)cc3)cc2O1 (stereo partly drawn) [Example 131, N-((endo)-8-{6-[4-(2H-Pyrazol-3-yl)-phenoxy]-2,3-dihydro-benzofuran-2-ylmethyl}-8-aza-bicyclo[3.2.1]oct-3-yl)-acetamide] | 120 | 0.17
O=C(CO)N1CC2CCC(C1)N2Cc1ccc2cc(Oc3ccc(-c4ccn[nH]4)cn3)ccc2n1 [Example 132, 2-Hydroxy-1-(8-{6-[5-(2H-pyrazol-3-yl)-pyridin-2-yloxy]-quinolin-2-ylmethyl}-3,8-diaza-bicyclo[3.2.1]oct-3-yl)-ethanone] | 140 | 0.28
CC(=O)NC1CCN(CCc2coc3cc(Oc4ccc(-c5ccn[nH]5)cn4)ccc23)CC1 [Example 133, N-[1-(2-{6-[5-(2H-Pyrazol-3-yl)-pyridin-2-yloxy]-benzofuran-3-yl}-ethyl)-piperidin-4-yl]-acetamide] | 150 | 0.35
CC(=O)N1CCCN(CCc2coc3cc(Oc4ccc(-c5ccn[nH]5)cn4)ccc23)CC1 [Example 134, 1-[4-(2-{6-[5-(2H-Pyrazol-3-yl)-pyridin-2-yloxy]-benzofuran-3-yl}-ethyl)-[1,4]diazepan-1-yl]-ethanone] | 150 | 0.28
CC(=O)N1CCCN(CCC2COc3cc(Oc4ccc(-c5ccn[nH]5)cn4)ccc32)CC1 (centres unmarked) [Example 135, 1-[4-(2-{6-[5-(2H-Pyrazol-3-yl)-pyridin-2-yloxy]-2,3-dihydro-benzofuran-3-yl}-ethyl)-[1,4]diazepan-1-yl]-ethanone] | 180 | 0.56
CC(=O)N1CCN(CCc2coc3cc(Oc4ccc(-c5ccn[nH]5)cn4)ccc23)CC1 [Example 136, 1-[4-(2-{6-[5-(2H-Pyrazol-3-yl)-pyridin-2-yloxy]-benzofuran-3-yl}-ethyl)-piperazin-1-yl]-ethanone] | 190 | 0.63
CNC(=O)C1CCN(CC2Cc3ccc(Oc4ccc(-c5ccn[nH]5)cc4)cc3O2)CC1 (centres unmarked) [Example 137, 1-{6-[4-(2H-Pyrazol-3-yl)-phenoxy]-2,3-dihydro-benzofuran-2-ylmethyl}-piperidine-4-carboxylic acid methylamide] | 190 | 0.57
CNC(=O)C1CCN(CCc2coc3cc(Oc4ccc(-c5ccn[nH]5)cn4)ccc23)CC1 [Example 138, 1-(2-{6-[5-(2H-Pyrazol-3-yl)-pyridin-2-yloxy]-benzofuran-3-yl}-ethyl)-piperidine-4-carboxylic acid methylamide] | 190 | 0.39
O=C(CO)N1C[C@@H]2C[C@H]1CN2Cc1ccc2cc(Oc3ccc(-c4ccn[nH]4)cn3)ccc2n1 [Example 139, 2-Hydroxy-1-((1S,4S)-5-{6-[5-(2H-pyrazol-3-yl)-pyridin-2-yloxy]-quinolin-2-ylmethyl}-2,5-diaza-bicyclo[2.2.1]hept-2-yl)-ethanone] | 200 | 0.39
O=C(CO)N1CCCN(Cc2ccc3cc(Oc4ccc(-c5ccn[nH]5)cn4)ccc3n2)CC1 [Example 140, 2-Hydroxy-1-(4-{6-[5-(2H-pyrazol-3-yl)-pyridin-2-yloxy]-quinolin-2-ylmethyl}-[1,4]diazepan-1-yl)-ethanone] | 200 | 0.93
CS(=O)(=O)NC1CCN(CCc2coc3cc(Oc4ccc(-c5ccn[nH]5)cn4)ccc23)CC1 [Example 141, N-[1-(2-{6-[5-(2H-Pyrazol-3-yl)-pyridin-2-yloxy]-benzofuran-3-yl}-ethyl)-piperidin-4-yl]-methanesulfonamide] | 200 | 0.35
CC(=O)N[C@@H]1C[C@H]2CC[C@@H](C1)N2CC1Cc2ccc(Oc3ccc(-c4ccn[nH]4)cc3)cc2O1 (stereo partly drawn) [Example 142, N-((exo)-8-{6-[4-(2H-Pyrazol-3-yl)-phenoxy]-2,3-dihydro-benzofuran-2-ylmethyl}-8-aza-bicyclo[3.2.1]oct-3-yl)-acetamide] | 210 | 0.25
CC(=O)N1CCN(CCC2COc3cc(Oc4ccc(-c5ccn[nH]5)cn4)ccc32)CC1 (centres unmarked) [Example 143, 1-[4-(2-{6-[5-(2H-Pyrazol-3-yl)-pyridin-2-yloxy]-2,3-dihydro-benzofuran-3-yl}-ethyl)-piperazin-1-yl]-ethanone] | 230 | 0.85
NC(=O)C1CCN(CC2Cc3ccc(Oc4ccc(-c5ccn[nH]5)cc4)cc3O2)CC1 (centres unmarked) [Example 144, 1-{6-[4-(2H-Pyrazol-3-yl)-phenoxy]-2,3-dihydro-benzofuran-2-ylmethyl}-piperidine-4-carboxylic acid amide] | 260 | 0.64
O=C(CO)N1C[C@H]2C[C@@H]1CN2Cc1ccc2cc(Oc3ccc(-c4ccn[nH]4)cn3)ccc2n1 [Example 145, 2-Hydroxy-1-((1R,4R)-5-{6-[5-(2H-pyrazol-3-yl)-pyridin-2-yloxy]-quinolin-2-ylmethyl}-2,5-diaza-bicyclo[2.2.1]hept-2-yl)-ethanone] | 210 | 0.4
O=C(CO)N1CC2CCC1CN2Cc1ccc2cc(Oc3ccc(-c4ccn[nH]4)cn3)ccc2n1 (centres unmarked) [Example 146, 2-Hydroxy-1-(5-{6-[5-(2H-pyrazol-3-yl)-pyridin-2-yloxy]-quinolin-2-ylmethyl}-2,5-diaza-bicyclo[2.2.2]oct-2-yl)-ethanone] | 160 | 0.37
CC(=O)N1C[C@H]2C[C@@H]1CN2Cc1ccc2cc(Oc3ccc(-c4ccn[nH]4)cn3)ccc2n1 [Example 147, 1-((1R,4R)-5-{6-[5-(2H-Pyrazol-3-yl)-pyridin-2-yloxy]-quinolin-2-ylmethyl}-2,5-diaza-bicyclo[2.2.1]hept-2-yl)-ethanone] | 160 | 0.48
